Assay [1] has as its target T1, Glycogen phosphorylase, muscle form (Oryctolagus cuniculus) (UniProt P00489).
T1 sequence (whole entry): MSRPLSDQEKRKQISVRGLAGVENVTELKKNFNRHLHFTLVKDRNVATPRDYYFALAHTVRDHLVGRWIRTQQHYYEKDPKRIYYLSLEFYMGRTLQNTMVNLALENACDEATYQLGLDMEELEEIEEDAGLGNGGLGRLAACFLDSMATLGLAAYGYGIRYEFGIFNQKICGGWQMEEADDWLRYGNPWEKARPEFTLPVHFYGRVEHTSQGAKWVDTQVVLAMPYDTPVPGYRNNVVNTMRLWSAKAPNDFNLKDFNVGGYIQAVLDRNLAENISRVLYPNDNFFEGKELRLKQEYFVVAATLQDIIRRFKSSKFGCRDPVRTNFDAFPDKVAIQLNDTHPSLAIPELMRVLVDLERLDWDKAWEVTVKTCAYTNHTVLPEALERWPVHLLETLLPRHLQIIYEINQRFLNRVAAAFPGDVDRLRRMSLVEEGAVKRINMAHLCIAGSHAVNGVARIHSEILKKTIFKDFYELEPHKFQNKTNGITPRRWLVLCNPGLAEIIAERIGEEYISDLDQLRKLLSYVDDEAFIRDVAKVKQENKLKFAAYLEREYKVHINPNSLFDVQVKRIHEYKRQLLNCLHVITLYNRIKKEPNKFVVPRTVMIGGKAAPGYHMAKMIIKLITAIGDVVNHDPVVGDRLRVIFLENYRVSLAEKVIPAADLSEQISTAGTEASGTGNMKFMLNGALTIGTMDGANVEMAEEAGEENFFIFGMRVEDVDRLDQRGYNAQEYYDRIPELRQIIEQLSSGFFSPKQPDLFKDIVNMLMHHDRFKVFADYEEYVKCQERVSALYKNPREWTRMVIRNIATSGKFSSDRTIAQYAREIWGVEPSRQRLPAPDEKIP
In words: Inhibition of rabbit muscle glycogen phosphorylase-a assessed as formation of inorganic phosphate from glucose-1-phosphate at 222 uM by colorimetry.

Assay [2] addresses T2, Glycogen phosphorylase, muscle form (Oryctolagus cuniculus, UniProt P00489).
T2 sequence (P00489 whole entry): T1 sequence (whole entry)
As to the kind of experiment: Inhibition of rabbit muscle glycogen phosphorylase-a assessed as formation of inorganic phosphate from glucose-1-phosphate by colorimetry.

For assay [3], the target named is T1, Glycogen phosphorylase, muscle form (Oryctolagus cuniculus). As to the kind of experiment: Inhibition of rabbit muscle glycogen phosphorylase-a assessed as formation of inorganic phosphate from glucose-1-phosphate at 440 uM by colorimetry.
The target is the same in assay [4]. As to the kind of experiment: Inhibition of rabbit muscle glycogen phosphorylase-a assessed as formation of inorganic phosphate from glucose-1-phosphate at 11.1 uM by colorimetry.
Assay [5] shares this target. In words: Inhibition of rabbit muscle glycogen phosphorylase-a assessed as formation of inorganic phosphate from glucose-1-phosphate at 44 uM by colorimetry.
The target is the same in assay [6]. As to the kind of experiment: Inhibition of rabbit muscle glycogen phosphorylase-a assessed as formation of inorganic phosphate from glucose-1-phosphate at 4.4 mM by colorimetry.
For assay [7] the target is unchanged. As to the kind of experiment: Inhibition of rabbit muscle glycogen phosphorylase-a assessed as formation of inorganic phosphate from glucose-1-phosphate at 90 uM by colorimetry.
For assay [8] the target is unchanged. In words: Inhibition of rabbit muscle glycogen phosphorylase-a assessed as formation of inorganic phosphate from glucose-1-phosphate at 20 uM by colorimetry.
The target is the same in assay [9]. As to the kind of experiment: Inhibition of rabbit muscle glycogen phosphorylase-a assessed as formation of inorganic phosphate from glucose-1-phosphate at 444 uM by colorimetry.

`CCCNC(=O)Cn1cccc(NCc2ccc(Cl)c(Cl)c2)c1=O`: the inhibition (commonly the share of the control response that was lost under treatment) in assay [1] came to 67%.
The same measure, in the same setting: then `Cc1ccc(S(=O)(=O)Nc2cccn(CC(=O)NCc3ccc(Cl)c(Cl)c3)c2=O)cc1`, with 37%; and `CCOC(=O)Cn1cccc(NCc2ccc(Cl)c(Cl)c2)c1=O`, with 43%.
For the molecule `O=C(Cn1cccc(NCc2ccc(Cl)c(Cl)c2)c1=O)Nc1ccc(Cl)c(Cl)c1`, the half-inhibitory concentration (IC50) (commonly the midpoint of a concentration-inhibition curve) in assay [2] (read-out: IC50(app)) turned out to be 18.5 µM. In addition, in assay [1], the inhibition stood at 98%.
Take `O=C(Cn1cccc(NCc2ccc(Cl)c(Cl)c2)c1=O)Nc1ccccc1`: the inhibition in assay [3] worked out at 19%.
`O=C(Cn1cccc(NCc2ccccc2Cl)c1=O)NCc1ccc(Cl)c(Cl)c1`: the IC50 in assay [2] (read-out: IC50) turned out to be 18.5 µM. In assay [1], the inhibition stood at 77%.
As to `O=C(Cn1cccc(NCc2ccccc2)c1=O)Nc1ccccc1`, in [2], the IC50 entry is recorded as “Not Active”.
As to `CCOC(=O)Cn1cccc(NCc2ccc(Cl)cc2)c1=O`, the inhibition in [1] is 75%.
Take `O=C(Cn1cccc(NCc2ccc([N+](=O)[O-])cc2)c1=O)NCc1ccc(Cl)c(Cl)c1`: the IC50 in assay [2] (read-out: IC50(app)) was 2.5 µM. Also, the inhibition in [4] is 100%.
`O=C(Cn1cccc(NCc2ccc(Cl)c(Cl)c2)c1=O)NCCc1ccc(Cl)cc1Cl`: in [5], the inhibition is 22%.
`O=C(Cn1cccc(NCc2ccc(Cl)c(Cl)c2)c1=O)NCc1ccc(Cl)c(Cl)c1`: the IC50 in [2] (read-out: IC50) was 1.92 µM.
Turning to `O=C(Cn1cccc(NCCCc2ccccc2)c1=O)NCc1ccc(Cl)c(Cl)c1`, the inhibition in assay [6] turned out to be 33%.
With `O=C(Cn1cccc(NCc2ccccc2)c1=O)Nc1ccc(Cl)c(Cl)c1`, the inhibition in [7] amounted to 41%.
`O=C(Cn1cccc(NCc2ccc(Cl)cc2)c1=O)Nc1ccc(Cl)c(Cl)c1`: in [2], the IC50 entry is “Not Active”.
On to `O=C(Cn1cccc(NCc2cccc(Cl)c2)c1=O)Nc1ccc(Cl)c(Cl)c1`, for which, in assay [8], the inhibition turned out to be 33%.
In the case of `O=C(Cn1cccc(NCc2cccs2)c1=O)NCc1ccc(Cl)c(Cl)c1`, the IC50 in [2] (read-out: IC50(app)) stood at 19.5 µM. Moreover, in [1], the inhibition turned out to be 73%.
On the same counts, the results for `O=C(Cn1cccc(NC(=O)c2ccccc2)c1=O)Nc1ccc(Cl)c(Cl)c1` are 13 µM and 100%.
With `O=C(Cn1cccc(NCc2cccc(Cl)c2)c1=O)NCc1ccc(Cl)c(Cl)c1`, in assay [2] (read-out: IC50), the IC50 was 5.66 µM.
Same read-out and setting: as for `O=C(Cn1cccc(NCc2ccc(Cl)cc2)c1=O)NCc1ccc(Cl)c(Cl)c1`, the figure is 2.1 µM; as for `Cc1ccc(S(=O)(=O)n2cccc2CNc2cccn(CC(=O)NCc3ccc(Cl)c(Cl)c3)c2=O)cc1`, 3.4 µM; as for `O=C(Cn1cccc(NCc2ccc(Cl)c(Cl)c2)c1=O)NCCc1ccccc1`, 31.3 µM.
In the case of `CCOC(=O)Cn1cccc(NCc2cccn2S(=O)(=O)c2ccc(C)cc2)c1=O`, in assay [1], the inhibition amounted to 75%.
For the molecule `O=C(Cn1cccc(NCc2ccccc2)c1=O)NCCc1ccc(Cl)c(Cl)c1`, the inhibition in assay [9] was found to be 80%.
On to `O=C(Cn1cccc(NCc2ccccc2Cl)c1=O)Nc1ccc(Cl)c(Cl)c1`, for which, in assay [2] (read-out: IC50), the 50% inhibitory concentration (IC50) is 57 µM.
Regarding `O=C(Cn1cccc(NCc2ccccn2)c1=O)NCc1ccc(Cl)c(Cl)c1`, in [2], the IC50 entry is “Not Active”.
As to `O=C(Cn1cccc(NCc2ccccc2)c1=O)NCCc1ccc(Cl)cc1Cl`, the inhibition in [5] worked out at 93%.
Turning to `O=C(Cn1cccc(NCCCc2ccccc2)c1=O)NCCc1ccc(Cl)c(Cl)c1`, the 50% inhibitory concentration (IC50) in [2] (read-out: IC50) turned out to be 68 µM.
`O=C(Cn1cccc(NCc2ccc(Cl)c(Cl)c2)c1=O)NCc1ccccc1`: the IC50 in assay [2] (read-out: IC50) is 10.2 µM.
Turning to `O=C(Cn1cccc(NCc2ccc(Cl)c(Cl)c2)c1=O)NCCc1ccc(Cl)c(Cl)c1`, the concentration for half-maximal inhibition (IC50) in assay [2] (read-out: IC50(app)) came out at 22.5 µM. The inhibition in [4] turned out to be 98%.

Values taken from ChEMBL document CHEMBL3769302, “2-Oxo-1,2-dihydropyridinyl-3-yl amide-based GPa inhibitors: Design, synthesis and structure-activity relationship study” (Eur J Med Chem, 2016).
